From ChEMBL document CHEMBL1142524, “Virtual screening to successfully identify novel janus kinase 3 inhibitors: a sequential focused screening approach” (J Med Chem, 2008)

Target: T1, Tyrosine-protein kinase JAK3 (Homo sapiens, UniProt P52333)
T1 sequence (P52333 whole entry): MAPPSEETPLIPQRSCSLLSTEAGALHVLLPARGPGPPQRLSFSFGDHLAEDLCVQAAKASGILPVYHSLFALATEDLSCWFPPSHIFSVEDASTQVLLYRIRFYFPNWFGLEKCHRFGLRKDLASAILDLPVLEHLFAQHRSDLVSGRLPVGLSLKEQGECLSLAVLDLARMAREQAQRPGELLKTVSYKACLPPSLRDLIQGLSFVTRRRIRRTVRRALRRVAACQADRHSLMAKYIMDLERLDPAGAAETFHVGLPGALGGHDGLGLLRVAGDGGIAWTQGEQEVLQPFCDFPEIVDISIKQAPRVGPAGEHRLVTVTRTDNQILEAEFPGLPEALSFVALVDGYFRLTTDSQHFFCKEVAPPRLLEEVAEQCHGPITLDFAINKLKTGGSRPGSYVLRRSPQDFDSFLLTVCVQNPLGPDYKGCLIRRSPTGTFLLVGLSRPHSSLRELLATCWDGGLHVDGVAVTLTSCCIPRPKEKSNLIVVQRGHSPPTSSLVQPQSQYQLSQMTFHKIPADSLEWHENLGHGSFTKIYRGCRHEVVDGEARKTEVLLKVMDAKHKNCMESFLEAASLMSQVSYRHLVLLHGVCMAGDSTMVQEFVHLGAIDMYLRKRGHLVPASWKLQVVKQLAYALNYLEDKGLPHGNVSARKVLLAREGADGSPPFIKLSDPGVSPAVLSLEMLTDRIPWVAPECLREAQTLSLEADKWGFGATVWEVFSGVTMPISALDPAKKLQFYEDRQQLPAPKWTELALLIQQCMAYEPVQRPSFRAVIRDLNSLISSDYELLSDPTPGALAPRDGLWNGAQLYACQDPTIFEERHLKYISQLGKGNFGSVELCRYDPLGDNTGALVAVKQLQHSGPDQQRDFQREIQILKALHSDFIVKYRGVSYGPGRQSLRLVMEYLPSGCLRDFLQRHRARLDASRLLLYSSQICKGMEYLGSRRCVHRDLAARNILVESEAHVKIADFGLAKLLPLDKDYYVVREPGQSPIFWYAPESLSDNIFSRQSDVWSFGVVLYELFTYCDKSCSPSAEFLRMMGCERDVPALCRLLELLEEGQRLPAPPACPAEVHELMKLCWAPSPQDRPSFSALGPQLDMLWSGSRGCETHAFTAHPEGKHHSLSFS
Experiment: Inhibition of JAK3

SMILES | IC50
Cc1cc(C(=O)Nc2ccc3[nH]ncc3c2)nn1-c1cccc(C(F)(F)F)c1 | 2640 nM
CN1CCN(c2ccc(Nc3ncc4[nH]nc(-c5ccccc5)c4n3)cc2)CC1 | 98 nM
Oc1c2ccccc2c2c3c(cccc13)N=N2 [SP-600125] | 957 nM
